Measurements as given in patent US20190225650A1, “PEPTIDOMIMETIC MACROCYCLES AND USE THEREOF IN REGULATING HIF1ALPHA” (AILERON THERAPEUTICS, INC., priority 2013, published 2019).
Bridge positions count the residues as written; N and C are the ends. Square brackets hold non-standard residues; d marks the D form. Peptide text beside a SMILES is read from it. R8 = C=CCCCCCC[C@@](C)(N)C(=O)O; S5 = C=CCCC[C@](C)(N)C(=O)O; Nle = CCCC[C@H](N)C(=O)O; Abu = CC[C@H](N)C(=O)O

Assays:
[1] = tested on: HRE-bla ME-180 cells; assay: Reporter gene assay (HRE-bla ME-180 HIF reporter, GeneBLAzer); assay type: cell-based, human; settings: for EC50: 24 hour normoxia
Summary of the method: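 A FRET β-lactamase readout of HIF transcription was used. After compound treatment in 0.3% DMSO/media under normoxic conditions, 20 μl of 6× LiveBLAzer-FRET B/G (CCF4-AM) substrate was added. Plates sat 3 hr at room temperature in the dark and were read at 409 Ex/460Em and 409Ex/530Em on a Synergy 2. Inhibition was compared against DMSO vehicle controls, with chetomin as positive control.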

[2] = tested on: HRE-bla ME-180 cells; assay: Cell proliferation assay (viability, MTT, 1% FBS); assay type: cell-based, human
Experimental: The human cervical cell line HRE-Bla ME-180 was obtained from Invitrogen. 2×10^4 ME-180 cells were plated in 96-well plates (costar) in Opti-MEM plus 1% FBS (Invitrogen). After 4 hr, cells were pretreated with chetomin, peptide or 0.5% DMSO (final concentration in media) vehicle control for 16 hr under normoxia (21% O2); then incubation continued under normoxia or hypoxia (1% O2) using a hypoxia incubator (Thermo Forma model). Viable cell numbers were quantified using CellTiter 96 Non-Radioactive Cell Proliferation kit (Promega, G4100). The results are presented in the column “Viability 1% FBS AVG (MTT V3-24 hr Normoxia) (μM)” of Table 6.

| Structure (SMILES) | 18 h Avg % max inhibition at top conc (HIF Rptr-24 hrs normoxia) (μM) [1] | EC50 [1] [µM] | Viability 1% FBS AVG (MTT V3-24 hr Normoxia) (μM) [2] |
| --- | --- | --- | --- |
| CCCC[C@H](NC(=O)[C@H](CC(C)C)NC(=O)[C@@H](NC(=O)[C@H](C)NC(=O)[C@H](CCC(N)=O)NC(=O)[C@H](CC(=O)O)NC(=O)[C@@H](NC(=O)[C@H](Cc1ccccc1)NC(C)=O)[C@@H](C)CC)C(C)C)C(=O)N[C@@]1(C)CCCC=CCCC[C@@](C)(C(=O)N[C@@H](CCCC)C(=O)N[C@@H](C)C(=O)N[C@@H](CC(C)C)C(=O)N[C@@H](CC(N)=O)C(=O)N[C@@H](CCCNC(=N)N)C(=O)N[C@H](C(N)=O)[C@@H](C)CC)NC(=O)[C@H]([C@@H](C)CC)NC(=O)[C@H](C(C)C)NC(=O)[C@H](CC(C)C)NC1=O [SP-273] (Ac-FIDQAVL[Nle][S5]LVI[S5][Nle]ALNRI-NH2; staple 9-13) | +++ (≤25 but <50: +++) | > 30 | ++++ (≥30: ++++) |
| CC[C@H](C)[C@H](NC(=O)[C@H](CCCNC(=N)N)NC(=O)[C@H](CC(=O)O)NC(=O)[C@H](CC(C)C)NC(=O)[C@H](C)NC(=O)[C@H](CCSC)NC(=O)[C@]1(C)CCCC=CCCC[C@](C)(NC(=O)[C@H](CCSC)NC(=O)[C@H](CC(C)C)NC(=O)[C@@H](NC(=O)[C@H](CCC(N)=O)NC(=O)[C@H](CCC(=O)O)NC(=O)[C@H](CC(=O)O)NC(=O)[C@@H](NC(=O)[C@H](Cc2ccccc2)NC(C)=O)[C@@H](C)CC)C(C)C)C(=O)N[C@@H](CC(C)C)C(=O)N[C@@H](C(C)C)C(=O)N[C@@H]([C@@H](C)CC)C(=O)N1)C(N)=O [SP-282] (Ac-FIDEQVLM[S5]LVI[S5]MALDRI-NH2; staple 9-13) | ++++ (≥50: ++++) | ≤ 5 | ++++ (≥30: ++++) |
| CC[C@H](C)[C@H](NC(=O)[C@H](CC(N)=O)NC(=O)[C@@H](NC(=O)[C@H](CCC(N)=O)NC(=O)[C@H](CC(=O)O)NC(=O)[C@H](CC(C)C)NC(=O)[C@H](C)NC(=O)[C@H](CCCNC(=N)N)NC(=O)[C@H](CC(C)C)NC(=O)[C@H](CC(C)C)NC(=O)[C@H](CCC(=O)O)NC(=O)[C@H](CCC(=O)O)NC(=O)CNC(=O)[C@H](CCC(N)=O)NC(=O)[C@H](CC(C)C)NC(=O)[C@H](CC(C)C)NC(C)=O)C(C)C)C(=O)N[C@@H](CC(=O)O)C(=O)N[C@@H](CCC(=O)O)C(=O)N[C@@H](CCC(=O)O)C(=O)N[C@H](C(=O)N[C@@H](CC(C)C)C(=O)N[C@@H](CCSC)C(=O)N[C@@]1(C)CCCC=CCCC[C@@](C)(C(=O)N[C@@H](CCSC)C(N)=O)NC(=O)[C@H]([C@@H](C)CC)NC(=O)[C@H](C(C)C)NC(=O)[C@H](CC(C)C)NC1=O)C(C)C [SP-319] (Ac-LLQGEELLRALDQVNIDEEVLM[S5]LVI[S5]M-NH2; staple 23-27) | + (<10: +) | > 30 | ++++ (≥30: ++++) |
| CC[C@@H]1NC(=O)[C@H](CC(=O)O)NC(=O)[C@H](Cc2ccc(O)cc2)NC(=O)[C@@](C)(NC(=O)[C@@H](NC(=O)[C@H](CC(C)C)NC(=O)[C@H](CCC(N)=O)NC(=O)[C@@H]2CCCN2C(=O)[C@H](CC(C)C)NC(=O)[C@H](CCC(=O)O)NC(=O)[C@H](CCCCN)NC(=O)[C@@H](NC(=O)[C@H](CCCNC(=N)N)NC(=O)[C@H](CC(=O)O)NC(=O)[C@H](CC(C)C)NC(=O)CNC(=O)[C@H](CCSC)NC(=O)[C@H](CCC(=O)O)NC(=O)[C@@H](NC(=O)[C@@H](NC(=O)[C@H](CC(C)C)NC(=O)[C@]2(C)CCCC=CCCC[C@](C)(NC(=O)[C@H](CCC(=O)O)NC(=O)[C@H](CC(=O)O)NC(=O)[C@@H](NC(=O)[C@H](Cc3ccccc3)NC(C)=O)[C@@H](C)CC)C(=O)N[C@@H](C(C)C)C(=O)N[C@@H](CC(C)C)C(=O)N[C@@H](CCSC)C(=O)N2)C(C)C)[C@@H](C)CC)[C@@H](C)CC)[C@@H](C)O)CCCC=CCCC[C@@](C)(C(=O)N[C@H](C(=O)N[C@@H](CC(N)=O)C(=O)N[C@@H](C)C(N)=O)C(C)C)NC1=O [SP-322] (Ac-FIDE[S5]VLM[S5]LVIEMGLDRIKELPQLT[S5]YD[Abu][S5]VNA-NH2; staple 5-9, 27-31) | + (<10: +) | > 30 | ++++ (≥30: ++++) |
| CCCC[C@H](NC(=O)[C@H](CCC(=O)O)NC(=O)[C@@H](NC(=O)[C@@H](NC(=O)[C@H](CC(C)C)NC(=O)[C@]1(C)CCCC=CCCC[C@](C)(NC(=O)[C@H](CCC(=O)O)NC(=O)[C@H](CC(=O)O)NC(=O)[C@@H](NC(=O)[C@H](CC(N)=O)NC(=O)[C@@H](NC(=O)[C@H](CCC(N)=O)NC(=O)[C@H](CC(=O)O)NC(=O)[C@H](CC(C)C)NC(=O)[C@H](C)NC(=O)[C@H](CCCNC(=N)N)NC(=O)[C@]2(C)CCCC=CCCC[C@](C)(NC(=O)[C@H](CCC(N)=O)NC(=O)[C@H](CC(C)C)NC(=O)[C@H](CC(C)C)NC(C)=O)C(=O)N[C@@H](CCC(=O)O)C(=O)N[C@@H](CCC(=O)O)C(=O)N[C@@H](CC(C)C)C(=O)N2)C(C)C)[C@@H](C)CC)C(=O)N[C@@H](C(C)C)C(=O)N[C@@H](CC(C)C)C(=O)N[C@@H](CCCC)C(=O)N1)C(C)C)[C@@H](C)CC)C(=O)NCC(N)=O [SP-325] (Ac-LLQ[S5]EEL[S5]RALDQVNIDE[S5]VL[Nle][S5]LVIE[Nle]G-NH2; staple 4-8, 19-23) | + (<10: +) | > 30 | ++++ (≥30: ++++) |
| CCCC[C@H](NC(=O)[C@H](CCC(=O)O)NC(=O)[C@@H](NC(=O)[C@@H](NC(=O)[C@H](CC(C)C)NC(=O)[C@]1(C)CCCC=CCCC[C@](C)(NC(=O)[C@H](CCC(=O)O)NC(=O)[C@H](CC(=O)O)NC(=O)[C@@H](NC(=O)[C@H](CC(N)=O)NC(=O)[C@@H](NC(=O)[C@H](CCC(N)=O)NC(=O)[C@]2(C)CCCC=CCCC[C@](C)(NC(=O)[C@H](CC(C)C)NC(=O)[C@H](CCC(=O)O)NC(=O)[C@H](CCC(=O)O)NC(=O)CNC(=O)[C@H](CCC(N)=O)NC(=O)[C@H](CC(C)C)NC(=O)[C@H](CC(C)C)NC(C)=O)C(=O)N[C@@H](CCCNC(=N)N)C(=O)N[C@@H](C)C(=O)N[C@@H](CC(C)C)C(=O)N2)C(C)C)[C@@H](C)CC)C(=O)N[C@@H](C(C)C)C(=O)N[C@@H](CC(C)C)C(=O)N[C@@H](CCCC)C(=O)N1)C(C)C)[C@@H](C)CC)C(=O)NCC(N)=O [SP-327] (Ac-LLQGEEL[S5]RAL[S5]QVNIDE[S5]VL[Nle][S5]LVIE[Nle]G-NH2; staple 8-12, 19-23) | + (<10: +) | > 30 | ++++ (≥30: ++++) |
| CCCC[C@H](NC(=O)[C@]1(C)CCCC=CCCC[C@](C)(NC(=O)[C@H](CCCC)NC(=O)[C@H](CC(C)C)NC(=O)[C@@H](NC(=O)[C@H](CCC(=O)O)NC(=O)[C@H](CCC(=O)O)NC(=O)[C@H](CC(=O)O)NC(=O)[C@@H](NC(=O)[C@H](CC(N)=O)NC(=O)[C@@H](NC(=O)[C@]2(C)CCCC=CCCCCCC[C@@](C)(NC(=O)[C@H](CCC(=O)O)NC(=O)[C@H](C)NC(=O)[C@H](CCC(N)=O)NC(=O)[C@H](CC(C)C)NC(=O)[C@H](CC(C)C)NC(C)=O)C(=O)N[C@@H](CC(C)C)C(=O)N[C@@H](CC(C)C)C(=O)N[C@@H](CCCNC(=N)N)C(=O)N[C@@H](C)C(=O)N[C@@H](CC(C)C)C(=O)N[C@@H](CC(=O)O)C(=O)N2)C(C)C)[C@@H](C)CC)C(C)C)C(=O)N[C@@H](CC(C)C)C(=O)N[C@@H](C(C)C)C(=O)N[C@@H]([C@@H](C)CC)C(=O)N1)C(N)=O [SP-350] (Ac-LLQAE[R8]LLRALD[S5]VNIDEEVL[Nle][S5]LVI[S5][Nle]-NH2; staple 6-13, 23-27) | +++ (≤25 but <50: +++) | 5 to 15 | ++++ (≥30: ++++) |
| CCCC[C@H](NC(=O)[C@H](C)NC(=O)[C@]1(C)CCCC=CCCCCCC[C@@](C)(NC(=O)[C@H](C)NC(=O)[C@H](C)NC(=O)[C@@H](NC(=O)[C@H](CC(N)=O)NC(=O)[C@@H](NC(=O)[C@H](CCC(N)=O)NC(=O)[C@]2(C)CCCC=CCCC[C@](C)(NC(=O)[C@H](CC(C)C)NC(=O)[C@H](C)NC(=O)[C@H](C)NC(=O)CNC(=O)[C@H](CCC(N)=O)NC(=O)[C@H](CC(C)C)NC(=O)[C@H](CC(C)C)NC(C)=O)C(=O)N[C@@H](CCCNC(=N)N)C(=O)N[C@@H](C)C(=O)N[C@@H](CC(C)C)C(=O)N2)C(C)C)[C@@H](C)CC)C(=O)N[C@@H](C(C)C)C(=O)N[C@@H](CC(C)C)C(=O)N[C@@H](CCCC)C(=O)N[C@@H](CO)C(=O)N[C@@H](CC(C)C)C(=O)N[C@@H](C(C)C)C(=O)N1)C(N)=O [SP-364] (Ac-LLQGAAL[S5]RAL[S5]QVNIAA[R8]VL[Nle]SLV[S5]A[Nle]-NH2; staple 8-12, 19-26) | ++ (≤10 but <25: ++) | > 30 | ++++ (≥30: ++++) |
